From US11484608B2, “Non-invasive assessment of hepatic mitochondrial metabolism by positional isotopomer NMR tracer analysis (PINTA)” (YALE UNIVERSITY, priority 2017, dated 2022)
Blank lines part the entries; values can stand above or below the compound they belong to.

Experiments:
[1] = test system: hepatic mitochondrial fluxes (VPC, VCS); assay: PINTA / ex vivo NMR tracer study in rats infused with [3-^13C]lactate and [3-^3H]glucose (Example 1)
Text: Male Sprague-Dawley rats (˜10 weeks of age) were ordered from Charles River (Wilmington, Mass.) at ˜300 g and fed regular chow unless otherwise specified. […] Prior to studies, rats underwent surgery under general isoflurane anesthesia to place polyethylene catheters in the jugular vein and common carotid artery (PE90 and PE50 tubing, respectively; Instech, Plymouth Meeting, Pa.). After 1 week, recovery was verified by confirming that the rats had regained their surgical weight. Unless otherwise specified, all experiments were performed following an overnight fast (16 hrs food withdrawal prior to sacrifice). In both the rodent and human studies, data are represented as the mean of two technical replicates for each subject (i.e. two technical replicates per biological replicate). Sample sizes were selected to give power to detect moderate to large differences between groups (n=5-6 per group), and all animals were included in the final analysis.
The investigator performing the animal studies was not blinded for practical reasons, but the investigators analyzing fluxes were blinded as to the group allocation.
The flux calculations required the following equations using [^13C] glucose positional enrichment in plasma or liver, determined by NMR and GC/MS mass spectrometry. VPC is the rate of pyruvate carboxylase flux as determined from the anaplerotic flow into oxaloacetate (OAA). VCS is defined as the flux of the citrate synthase reaction in the citric acid cycle. […] G2 denotes [m+2] glucose arising from the condensation of two singly-labeled trioses.
GC/MS was used to measure m+1 and m+2 [^13C]glucose enrichment. The total m+1 and m+2 [^13C]glucose enrichment was measured using a pentaacetate derivative: plasma or liver samples were deproteinized using 5 volumes of methanol, dried, and derivatized with 75 μL of 1:1 acetic anhydride:pyridine. After heating to 65° C. for 20 min, the reaction was terminated by adding 25 μL methanol, and m+1 and m+2 (as well as m+3 . . . m+6) were determined by GC/MS (CI mode, m/z 331 [m], 332 [m+1], 333 [m+2], . . . 337 [m+6]). The m+1 and m+2 [^13C] enrichments of the glucose C4C5C6 fragment were determined by generating the aldonitrile pentapropionate derivative: plasma or NMR liver extract samples were dried under N2 gas, and 50 μl hydroxylamine hydrochloride (20 mg/ml in pyridine) were added. The samples were heated at 90° C. for 60 min, then 100 μl propionic anhydride was added, after which the samples were heated at 60° C. for 30 min. Finally, the samples were evaporated under N2 gas, resuspended in ethyl acetate, and the m+1 and m+2 enrichment of the glucose C4C5C6 fragment was measured by GC/MS.
[^13C]alanine enrichment was measured by GC/MS. [^13C] NMR spectroscopy using the BRUKER TOPSPIN® system was utilized to measure relative positional 13C-enrichment of glucose, and combined with the total [^13C]glucose enrichment ([m+1]+2*[m+2]) measured by GC/MS to calculate the positional enrichment of [13C]glucose.
Total [^13C]glutamate enrichment was determined by LC-MS/MS. Approximately 100 mg of liver tissue was weighed out and homogenized in 500 μl ice-cold methanol using a TissueLyser, then centrifuged at 4000 rpm for 10 minutes. The supernatant was then purified by centrifugation (4000 rpm, 10 min) through the PALL NANOSEP® filter (100K) (Port Washington, N.Y.). Glutamate 13C enrichment ([m+1], [m+2]) was then assessed by LC-MS/MS using an AB SCIEX QTRAP 6500 (Framingham, Mass.), equipped with a SHIMADZU ultra-fast liquid chromatography (UFLC) system (Columbia, Md.) and electrospray ionization (ESI) source with negative-ion detection. The measured ion pairs were 146/128 (m0), 147/129 (m+1), and 148/130 (m+2).
Positional enrichment of glucose, glutamate, and alanine was measured by 13C NMR.

[2] = target: T1, CPT-1 (Rattus norvegicus, UniProt P32198); assay: CPT-1 inhibitor etomoxir in 0, 6, 16 and 48 hr fasted rats; format: in vivo
T1 construct: from tissue; host or cells: live rat, in vivo (intraperitoneal dosing); liver is the tissue discussed
T1 sequence (P32198 1-773): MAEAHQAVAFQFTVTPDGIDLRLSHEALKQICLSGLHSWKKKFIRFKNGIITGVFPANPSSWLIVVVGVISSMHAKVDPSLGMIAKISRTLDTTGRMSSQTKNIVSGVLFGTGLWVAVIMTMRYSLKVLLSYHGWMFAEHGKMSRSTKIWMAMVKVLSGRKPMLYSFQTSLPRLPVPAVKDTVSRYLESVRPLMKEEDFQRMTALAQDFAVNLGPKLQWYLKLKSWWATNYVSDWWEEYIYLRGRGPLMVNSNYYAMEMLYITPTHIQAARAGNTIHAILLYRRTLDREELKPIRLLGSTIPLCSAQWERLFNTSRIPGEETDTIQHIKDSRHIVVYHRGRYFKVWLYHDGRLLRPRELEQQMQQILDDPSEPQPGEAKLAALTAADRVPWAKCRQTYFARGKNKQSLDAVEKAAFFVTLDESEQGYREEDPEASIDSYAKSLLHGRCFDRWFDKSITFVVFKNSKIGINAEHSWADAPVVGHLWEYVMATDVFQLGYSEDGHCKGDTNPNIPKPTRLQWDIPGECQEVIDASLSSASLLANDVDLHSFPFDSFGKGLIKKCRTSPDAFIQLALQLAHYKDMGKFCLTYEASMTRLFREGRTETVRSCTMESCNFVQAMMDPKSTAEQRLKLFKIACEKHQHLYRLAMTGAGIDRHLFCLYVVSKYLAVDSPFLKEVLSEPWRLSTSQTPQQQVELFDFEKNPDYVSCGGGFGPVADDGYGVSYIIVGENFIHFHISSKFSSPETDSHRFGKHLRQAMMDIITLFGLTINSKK
Experimental: (§1) 8, 16, and 48 hr fasted rats were injected with a small molecule inhibitor of glycogen phosphorylase, 1-(3-(3-(2-Chloro-4,5-difluorobenzoyl) ureido)-4-methoxyphenyl)-3-methylurea (Sigma #361515; 5 mg/kg IV) and a tracer infusion of [2,3,3,3-^2H4]alanine ([…]prime for 5 min and […] continuous) and [3-^3H]glucose (0.3 μCi/min prime for 5 min and 0.3 μCi/min continuous) as well as [^13C4] β-hydroxybutyrate, [1,1,2,3,3-^2H5]glycerol, and [^13C16]palmitate at the rates listed in Table 9, for 120 min. Blood samples were obtained before (time zero) and 120 min after treatment with the glycogen phosphorylase inhibitor for measurement of turnover rates and plasma hormone/substrate concentrations. Hepatic acetyl-CoA content was altered by treatment with a CPT-1 inhibitor (etomoxir, 8 mg/kg) or an ATGL inhibitor (atglistatin, […]) in 0, 6, 16, and 48 hr fasted rats. Both agents were solubilized by suspending the drug in 4% ethanol/96% normal saline, heating to 60° C., and sonicating, and were cooled to room temperature before they were injected intraperitoneally. […] In these animals plasma glucose concentrations were measured every 15 minutes and a variable infusion of 20% glucose (Pfizer Hospira, Lake Forest, Ill.) was used to maintain plasma glucose concentrations ˜3.6-3.7 mM. The physiologic role of glucocorticoids was assessed in 6 and 48 hr fasted rats by treatment with a glucocorticoid receptor antagonist, mifepristone. Following a 2 hr tracer infusion at the rates described above to assess fatty acid, glycerol, glucose, and β-hydroxybutyrate turnover, rats were injected with mifepristone (40 mg/kg) IV. The tracer infusion was continued and the tracer of each of the above substrates was again measured 2 hr after treatment with mifepristone.
(§2) All whole-body substrate turnover rates were calculated using the equation Turnover=([Tracer APE/Plasma APE]−1)*Infusion rate, where APE designates the atom percent enrichment measured by mass spectrometry as described below (Biochemical Analysis). All chemicals used for flux analysis were obtained from SIGMA. Turnover of glucose, glycerol, and β-hydroxybutyrate were determined by gas chromatography-mass spectrometry (GC-MS). Briefly, both glucose and glycerol were deprotonized with 5 volumes of methanol, derivitized with 3 volumes of 1:1 acetic anhydride:pyridine, heated to 65° C. for 20 min, and 1 volume of methanol was added, then GC-MS was used in CI mode to measure glucose enrichment and EI mode to measure glycerol enrichment, with turnover calculated using the equation above. β-Hydroxybutyrate was deprotonized with 5 volumes of methanol and derivitized with 3 volumes of n-butanol 4N HCl, after which the samples were heated to 65° C. for 60 min, evaporated under N2 gas, and re-suspended in […] of trifluoroacetic acid:methylene chloride (1:7). Fatty acid turnover was measured by determining the plasma palmitate enrichment by GC-MS. Samples were prepared for measurements of palmitate enrichment by evaporating […] plasma, dissolving in […] 1:1 chloroform:methanol and derivitizing with […] boron trifluoride/methanol, then heating to 100° C. for 5 min, adding 2 mL pentane and 1 mL water, and centrifuging at low speed for 5 min. […] Alanine turnover was determined in rats infused with [2,3,3,3-^2H4]alanine by preparing samples to measure alanine enrichment by GC/MS (CI mode) using the same protocol as was employed to measure β-hydroxybutyrate enrichment.

[3] = target: T2, glycogen phosphorylase (Rattus norvegicus, UniProt P09811); assay: Glycogen phosphorylase inhibitor in 8, 16 and 48 hr fasted rats; format: in vivo; conditions: for reduction in rates of endogenous glucose production: 5 mg/kg IV, 2 hr
T2 construct: from tissue; host or cells: live rat, in vivo (IV dosing); liver is the tissue discussed
T2 sequence (P09811 1-850): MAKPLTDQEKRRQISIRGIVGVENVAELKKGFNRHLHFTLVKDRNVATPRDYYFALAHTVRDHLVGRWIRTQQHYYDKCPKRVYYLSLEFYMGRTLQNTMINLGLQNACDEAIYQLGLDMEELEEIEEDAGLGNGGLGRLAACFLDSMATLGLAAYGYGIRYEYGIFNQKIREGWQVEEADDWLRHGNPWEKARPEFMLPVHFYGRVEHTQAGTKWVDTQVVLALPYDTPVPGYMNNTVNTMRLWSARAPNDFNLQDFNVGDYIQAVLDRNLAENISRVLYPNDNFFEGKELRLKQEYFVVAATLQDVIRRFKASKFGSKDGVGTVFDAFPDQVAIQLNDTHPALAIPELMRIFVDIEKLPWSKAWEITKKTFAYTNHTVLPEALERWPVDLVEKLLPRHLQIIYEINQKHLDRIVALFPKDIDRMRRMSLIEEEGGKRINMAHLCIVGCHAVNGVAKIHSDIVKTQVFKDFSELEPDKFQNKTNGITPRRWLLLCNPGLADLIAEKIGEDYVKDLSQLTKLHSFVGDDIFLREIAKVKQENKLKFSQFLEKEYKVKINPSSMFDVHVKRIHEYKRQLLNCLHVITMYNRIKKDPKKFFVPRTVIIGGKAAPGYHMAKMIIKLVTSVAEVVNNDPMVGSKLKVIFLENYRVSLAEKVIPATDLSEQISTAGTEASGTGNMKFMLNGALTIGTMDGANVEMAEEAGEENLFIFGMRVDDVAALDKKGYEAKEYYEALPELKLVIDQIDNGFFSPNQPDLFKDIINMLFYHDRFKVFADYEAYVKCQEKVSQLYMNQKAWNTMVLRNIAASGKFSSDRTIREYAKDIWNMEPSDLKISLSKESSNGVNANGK
Experimental: as §1, §2

[4] = rat liver, 120 min [3-^13C]lactate infusion, mean ± S.E.M.
[5] = short-term fasted rats (8 and 16 hr)

Structure (SMILES): CNC[C@H](O)c1ccc(O)c(O)c1 [Epinephrine, epinephrine]
- VPDH/VCS (%) [1, 4]: 4.3 ± 1.0%
- VPK+ME/VPC+PDH (%) [1, 4]: 5.4 ± 0.1%
- VPC/VEGP (%) ([1]; rats, 120 min [3-^13C]lactate infusion, mean ± S.E.M.): 67 ± 2%

Structure (SMILES): [13CH3]C(O)C(=O)O (stereo not drawn) [[3-^13C]lactate]
- plasma lactate enrichment ([1]; rats infused with 40 μmol/(kg-min)): ~45%

- plasma corticosterone concentrations ([2]; 16- and 48-hr fasted rats): increases
- reductions in plasma leptin concentrations ([2]; 16- and 48-hr fasted rats): 50%
- hepatic acetyl-CoA content, hepatic gluconeogenesis, and plasma glucose and insulin concentrations ([2]; 16- to 48-hr fasted rats): suppressed
- WAT lipolysis ([2]; fasted rats): increased
- hepatic acetyl-CoA content ([2]; fasted rats): suppression
- plasma epinephrine or norepinephrine concentrations ([2]; fasted rats): no differences
- plasma lactate and hepatic malonyl-CoA concentrations ([2]; fasted rats): unchanged
- β-hydroxybutyrate turnover ([2]; fasted rats): suppression
- plasma glucose concentrations ([2]; fasted rats, 8 mg/kg IP, 2 hr): lowered
- plasma insulin concentrations ([2]; fasted rats, 8 mg/kg IP, 2 hr): lowered
- whole body glucose turnover ([2]; fasted rats, 8 mg/kg IP, 2 hr): lowered
Structure (SMILES): CCOC(=O)[C@@]1(CCCCCCOc2ccc(Cl)cc2)CO1 [etomoxir]

- plasma ACTH concentrations ([3]; 8- and 16-hr fasted rats): increases
- plasma corticosterone concentrations ([3]; 8- and 16-hr fasted rats): increases
- plasma leptin concentrations ([3]; 8- and 16-hr fasted rats): reductions
- reduction in rates of endogenous glucose production ([3]; 8-hr fasted rats): 60%
- plasma FGF-21 concentrations ([3]; 8 and 16-hr fasted rats): increased
- plasma glucose concentrations ([3]; 8 and 16 hr fasted rats): lowered
- plasma insulin concentrations ([3]; 8 and 16 hr fasted rats): lowered
- plasma lactate concentrations ([3]; 8 and 16 hr fasted rats): lowered
- whole-body glucose turnover ([3]; 8 and 16 hr fasted rats): lowered
- reduction in rates of endogenous glucose production ([3]; 16-hr fasted rats): 30%
- plasma glucose, lactate, and insulin concentrations and whole-body glucose turnover ([3]; 48-hr fasted rats): not in the 48-hr fasted rats
- rates of endogenous glucose production ([3]; 48-hr fasted rats): no difference
- plasma glucagon and catecholamine concentrations ([3]; fasted rats): not altered
- rates of WAT lipolysis [3, 5]: increased
- rates of alanine turnover [3, 5]: decreased
Structure (SMILES): CNC(=O)Nc1ccc(OC)c(NC(=O)NC(=O)c2cc(F)c(F)cc2Cl)c1 [glycogen phosphorylase inhibitor, 1-(3-(3-(2-Chloro-4,5-difluorobenzoyl)ureido)-4-methoxyphenyl)-3-methylurea]
